Common to all, as to assay type: functional
For one test, the system named is Enterococcus faecalis. The experiment in a line: Antibacterial activity against Enterococcus faecalis ATCC 29212 assessed as reduction in microbial growth after 16 hrs by broth microdilution method. Conditions: ATCC 29212, 16 h. Background: In broth dilution the organism is exposed to a series of concentrations in liquid medium.
The next test has as its system Escherichia coli. The experiment in a line: Antibacterial activity against ESBL-producing Escherichia coli ATCC 35218 assessed as reduction in microbial growth after 16 hrs by broth microdilution method. Conditions: ATCC 35218, 16 h.
A further test concerns Klebsiella pneumoniae. Put plainly: Antibacterial activity against Klebsiella pneumoniae ATCC BAA2146 assessed as reduction in microbial growth after 16 hrs by broth microdilution method. The settings on record: ATCC BAA2146, 16 h.
The subject of a further test is Acinetobacter baumannii. Put plainly: Antibacterial activity against Acinetobacter baumannii ATCC 19606 assessed as reduction in microbial growth after 16 hrs by broth microdilution method. Conditions: ATCC 19606, 16 h.
A further test has as its system Staphylococcus aureus. Put plainly: Antibacterial activity against methicillin-resistant Staphylococcus aureus ATCC 43300 assessed as reduction in microbial growth after 16 hrs by broth microdilution method. The settings on record: ATCC 43300, 16 h.
In the next test the test system is Pseudomonas aeruginosa. The experiment in a line: Antibacterial activity against Pseudomonas aeruginosa ATCC 27853 assessed as reduction in microbial growth after 16 hrs by broth microdilution method. The settings on record: ATCC 27853, 16 h.

MIC data for six molecules are collected here from ChEMBL document CHEMBL4342458, “Reisolation and Configurational Reinvestigation of Cottoquinazolines E-G from an Arthropod-Derived Strain of the Fungus Neosartorya fischeri” (2020).

The term MIC denotes the lowest concentration found to suppress growth.

Each structure is given as a SMILES string.

Take `C[C@@H]1N[C@H]2N(C1=O)c1ccccc1[C@@]21C[C@H]2C(=O)N[C@@H](O1)c1nc3ccccc3c(=O)n12`: the MIC in the test with Enterococcus faecalis, with Escherichia coli, in the test on Klebsiella pneumoniae, in the test on Acinetobacter baumannii, in the test on Staphylococcus aureus and with Pseudomonas aeruginosa was at least 100 µg/mL in each case.

For the molecule `C[C@@H]1N[C@H]2N(C1=O)c1ccccc1[C@@]21C[C@H]2C(=O)N(C)[C@@H](O1)c1nc3ccccc3c(=O)n12`, the minimum inhibitory concentration (MIC) is 16 µg/mL with Enterococcus faecalis; 8 µg/mL in the test on Escherichia coli; at least 100 µg/mL in the test on Klebsiella pneumoniae; 32 µg/mL in the test on Acinetobacter baumannii; at least 100 µg/mL in the test on Staphylococcus aureus; 32 µg/mL in the test with Pseudomonas aeruginosa.

`C[C@H]1C(=O)N2c3ccccc3[C@@]3(O)C[C@H]4C(=O)N[C@H](c5nc6ccccc6c(=O)n54)N1[C@@H]23`: the MIC in the test on Enterococcus faecalis, in the test with Escherichia coli, in the test with Klebsiella pneumoniae, in the test with Acinetobacter baumannii, in the test on Staphylococcus aureus and in the test on Pseudomonas aeruginosa was at least 100 µg/mL each time.

Take `NCC[C@H](O)C(=O)N[C@@H]1C[C@H](N)[C@@H](O[C@H]2O[C@H](CN)[C@@H](O)[C@H](O)[C@H]2O)[C@H](O)[C@H]1O[C@H]1O[C@H](CO)[C@@H](O)[C@H](N)[C@H]1O` [AMIKACIN]: the minimum inhibitory concentration (MIC) with Escherichia coli is 4 µg/mL; in the test with Klebsiella pneumoniae, 8 µg/mL; in the test with Acinetobacter baumannii it was 2 µg/mL; in the test on Pseudomonas aeruginosa it was 2 µg/mL.

Take `CO/N=C(\C(=O)N[C@@H]1C(=O)N2C(C(=O)O)=C(CSc3nc(=O)c(O)nn3C)CS[C@H]12)c1csc(N)n1` [CEFTRIAXONE]: the MIC in the test with Escherichia coli came to 8 µg/mL; in the test on Klebsiella pneumoniae, 8 µg/mL; in the test on Acinetobacter baumannii it was 8 µg/mL; in the test on Pseudomonas aeruginosa, 2 µg/mL.

With `CN[C@H](CC(C)C)C(=O)N[C@H]1C(=O)N[C@@H](CC(N)=O)C(=O)N[C@H]2C(=O)N[C@H]3C(=O)N[C@H](C(=O)N[C@H](C(=O)O)c4cc(O)cc(O)c4-c4cc3ccc4O)[C@H](O)c3ccc(c(Cl)c3)Oc3cc2cc(c3O[C@@H]2O[C@H](CO)[C@@H](O)[C@H](O)[C@H]2O[C@H]2C[C@](C)(N)[C@H](O)[C@H](C)O2)Oc2ccc(cc2Cl)[C@H]1O` [VANCOMYCIN], the MIC in the test with Enterococcus faecalis was 0.5 µg/mL.
